From US20230121474A1, “STERILIZATION COMPOSITIONS AND METHODS FOR USING THEREOF” (Save Foods Ltd., priority 2020, published 2023)

How the values were obtained:
[1] = system: pre-infected lemons (inoculum of homogenized infected lemons); assay: Decay of pre-infected, pricked lemons after sanitizing treatment; assay type: in vivo
Source text: Inoculum preparation: Infected lemons were identified visually and collected under three different lemon trees on Moshav Beit Yitzhak. Ten of the more infected lemons were put into a food processor, diluted with rainwater and homogenized to uniform, grayish brown, slightly viscous liquid consistency.
They were sent to de-greening from which they were removed on 2nd day. All lemons were pricked in 6 different location on each lemon using a metal nail attached to a rubber stopper which ensured a uniform pricking depth of 1.5 mm on all the lemons. On the same day the liquidized inoculum was prepared as described above and all the lemons were dipped into the “infected” water solution for 30 seconds and allowed to dry at ambient room conditions—temperatures between […].
On the next day the lemons were treated as per description below to screen the various treatment's efficacy in controlling and preventing decay and spoilage of the pre-infected lemons. All treated lemons were divided and placed in separate cartons and allowed to dry. Disease progress of the lemons was monitored for 7 days with no visible disease symptoms. On day 8 after treatment all cartons were covered with plastic sheeting in order to increase ambient humidity to speed up disease development.

[2] = system: common fungal pathogen; assay: Decay of clementine infested with fungal pathogen after treatment; assay type: in vivo; conditions: fruits infested at around 10^5 CFU, cold storage 9 to 21 days then room temperature
Description: Additionally, exemplary sanitizing composition (Composition B) was applied on clementine, and the fruit decay was evaluated as compared to only PAA treatment or untreated fruits. The fruits were infested with a common fungal pathogen at a concentration of around 10^5 CFU and inoculated for 16-24 hours before treatment. Following the treatments, the fruits were stored in cold storage for between 9 to 21 days and then stored in room temperature for shelf-life evaluation.

[3] = system: Listeria; assay: In-vitro antimicrobial activity, edible matter contaminated with bacteria dipped into test solution (CFU reduction); assay type: cell-based; conditions: contact time 60 minutes
Description: The antimicrobial activity of the composition was tested in-vitro. […] The contact time was 60 minutes. The antimicrobial activity was assessed by calculating bacterial viability (e.g. reduction of the CFU).

[4] = Treatment 3: PAA 50 ppm/PAA 50 ppm, contact time 60 sec
[5] = Treatment 4: PAA 50 ppm/PAA 50 ppm, contact time 45 sec
[6] = Treatment 5: PAA 30 ppm, contact time 45 sec
[7] = acid blend 1:1:1 molar ratio with oxidizing agent, potent = at least 10^5-fold reduction of CFUs

## CC(=O)OO [PAA, per-acetic acid]
[1]; [4]
  % Infected Lemons 15 DAT: 16.7%
  % Infected lemons 10 DAT: 0%
  Infected Lemons 10 DAT: 0
  Infected Lemons 15 DAT: 2
[1]; [5]
  % Infected Lemons 15 DAT: 25%
  % Infected lemons 10 DAT: 20%
  Infected Lemons 10 DAT: 3
  Infected Lemons 15 DAT: 3
[1]; [6]
  % Infected Lemons 15 DAT: 40%
  % Infected lemons 10 DAT: 40%
  Infected Lemons 10 DAT: 4
  Infected Lemons 15 DAT: 4
[2]
  decay of clementine: about 20%

## OO [hydrogen peroxide]
[3]; [7]
  minimum concentration of hydrogen peroxide within the solution: 200 ppm
[3]; without acid blend
  antimicrobial activity of the oxidizing agent alone: Neither hydrogen peroxide, nor silver/hydrogen peroxide combination showed a significant antimicrobial activity

## CCC(=O)O [propionic acid]
[3]; [7]
  concentration of propionic acid within the solution sufficient for antibacterial activity: 100 ppm
